In assay [1] the test system is hRAS1 (DNA, G4) TCGGGTTGCGGGCGCAGGGCACGGGCG
As to the kind of experiment: CD melting. The conditions noted are these: K+ 100 mM; 10 mM Tris, pH 7.4; G4 15 μM; TPE-B : G4 1:1.

Assay [2] deals with ODN-51 (DNA, G4) TAGGGTTAGGGTTAGGGTTAGGG
Put plainly: ESI-MS. The conditions noted are these: K+ 1 mM; 100 mM TMAA, 50% methanol; 20 μM strand.

Assay [3] concerns hRAS1 (DNA, G4) TCGGGTTGCGGGCGCAGGGCACGGGCG
As to the kind of experiment: ESI-MS. The conditions noted are these: K+ 1 mM; 100 mM TMAA, 50% methanol; 20 μM strand.

Assay [4] relates to NRAS (RNA, G4) UGUGGGAGGGGCGGGUCUGGG
As to the kind of experiment: CD melting. The conditions noted are these: K+ 100 mM; 10 mM Tris, pH 7.4; NRAS 5 μM; TPE-B : G4 1:1.

One molecule from PMC9109478 (2022) can be followed below.

Turning to `CN(C)c1cc[n+](CCCCOc2ccc(C(=C(c3ccc(OCCCC[n+]4ccc(N(C)C)cc4)cc3)c3ccc(OCCCC[n+]4ccc(N(C)C)cc4)cc3)c3ccc(OCCCC[n+]4ccc(N(C)C)cc4)cc3)cc2)cc1`, the thermal shift (ΔTm) (in general, the change in melting temperature against a reference sample) in assay [1] was determined as 0.07 °C; in assay [4], 13.51 °C. Also, the binding result in assay [2] and in assay [3] was “weak” in each case.
